Results reported in patent US7759313B2, “Induction method for cell differentiation” (Obschetstvo S Ogranichennoi Otvetstvennostiyu …, priority 2002, dated 2010).
Values joined by “and” are separate entries in the source; they are usually repeats but may differ in a detail not shown here. Equal entries are not always repeated. Where two headings read alike, the source gives them in different places. Marks after values point to notes of the source that are not given here.

Tests used:
human melanoma = assay: Number of cells with melanin in inoculated human melanoma (Goryaev's chamber); format: in vivo; conditions: 4.5 mg/kg p.o. daily for 3 weeks
Experimental: Mice with subcutaneously inoculated human melanoma as described in Example 1 were daily p.o. dosed with Dicarbamine at a higher single dose (4.5 mg/kg for 3 weeks from the moment of the tumor transplantation).
Animals were sacrificed three weeks after the tumor transplantation. By the time of sacrifice, the volume of the tumors was on average 150 mm^3. Following sacrifice, the tumors were excised from the mice and disintegrated with Versen solution, and the cell fraction containing cells with pigment was isolated. The number of cells with pigment was calculated in the Goryaev's chamber using light microscopy.

[1] = Hematological toxicity according to WHO in ovarian cancer patients; format: in vivo, human
Experimental: The effect of Dicarbamine was studied in 13 patients with stage III-IV ovarian cancer who underwent 77 courses of the chemotherapy according to the scheme: 400 mg/m^2 Carboplatin i.v. drop-wise, once +600 mg/m^2 Cyclophosphan i.v. drop-wise, once; the courses were repeated in 28 days. Dicarbamine was prescribed daily at dose 100 mg orally after meals beginning 5 days prior to the first course and then for three weeks. Dosing duration was 26 days, course dose being 2600 mg. Dicarbamine was given again 5 days prior to the second chemotherapy course, and dosing was continued for 21 days. Total duration of Dicarbamine intake during two the chemotherapy courses was 52 days.
Hematological toxicity (leukopenia, neutropenia, thrombocytopenia) was assessed in 13 patients who received 77 courses of the chemotherapy with Dicarbamine as compared with the group of 7 patients who received 25-27 courses of the chemotherapy without Dicarbamine (control).

M-6 melanoma = assay: Melanin genesis intensity in M-6 melanoma cells (electronic microscopy); format: in vivo, human; conditions: for Average amount of melanosomes per a cell / MGII / Number of cells with melanosomes (per 500 cells): 1.0 mg/kg daily
Experimental: The study was conducted on 10-12 week old thymus free (nude) female Balb/C mice weighing 20-22 grams (breeding of the Russian Cancer Research Center (RCRC) named after N. N. Blokhin of the Russian Academy of Medical Sciences (RAMS)). A human melanoma strain earlier obtained from primary clinical material was taken from the bank of tumor strains of the RCRC of the RAMS for transplantation to thymus free “nude” mice. Tumor was disintegrated by Versen solution with vital Trypan blue staining and inoculated subcutaneously to mice in the amount of 1.6 million cells per mouse.
Dicarbamine was administered to mice intragastrically using a metal probe daily at dose 1.0 mg/kg beginning 4 days before the tumor inoculation and thereafter for 10-11 days (administration course up to 15 days). The mice were sacrificed with ether anesthesia in 12, 24 and 48 hours after the last administration.
The effect of Dicarbamine on melanoma cell differentiation was assessed on the basis of the intensity of melanin genesis by counting the number of cells with melanin in the tumor slices. With this goal, tumors were excised from the mice, placed into glutaraldehyde and histologically processed for electronic microscopy. The Melanin Genesis Intensity Index (MGII), which reflects the degree of cell differentiation, was calculated in the prepared slices according to the following equation: MGII=NCM×NM,
wherein: NCM is the number of cells containing melanosomes;
NM is average number of melanosomes per a cell.

Friend erythroblastosis = assay: Subcutaneously inoculated Friend erythroblastosis growth; format: in vivo, mice
Experimental: The studies were conducted on male mice hybrid 100 BDF1 that were divided into groups containing 10 mice each. Lineal DBA2 mice were used for passaging FEB in vivo.
A strain of Friend erythroblastosis was obtained from the bank of tumor strains of the GU RCRC named after N. N. Blokhin of the RAMS. It was twice passaged intraperitoneally using generations 3-8 in subcutaneous inoculation. The inoculation was done using a cellular suspension of 1×10^6 cells in 0.3 ml […].
Solutions of the tested compounds were intra-gastrically daily administered to mice using a probe from day 3 to day 7 after tumor inoculation.
Therapeutic efficacy was assessed on the basis of tumor growth inhibition (TGI, %) and an average life span (ALS). Increase in life span was determined by the commonly accepted criterion T/C (%), which was calculated as a ratio between ALS in the test and control groups. Tumor growth rate Vt/V1 was calculated on the basis of change growth in average tumor volumes.

[2] = vs chemotherapy without Dicarbamine
[3] = 1.5 mg/kg daily for 5 days, day 8
[4] = 1.5 mg/kg daily for 5 days, day 13
[5] = 1.5 mg/kg daily for 5 days, day 19
[6] = 4.5 mg/kg daily for 5 days, day 8
[7] = 4.5 mg/kg daily for 5 days, day 13
[8] = 4.5 mg/kg daily for 5 days, day 19

## O=C(O)CCCC(=O)NCCc1c[nH]cn1 [Dicarbamine]
Human melanoma
  increase of number of cells synthesizing melanin vs control: 3 fold
Human melanoma; individual tumors 1-7
  Number of cells with melanin: 95 (2×) and 110 and 130 and 106 and 111 (2×)
[1]; WHO degree 0
  Leukopenia: 7.7%
  Leukopenia, number: 6
  Neutropenia: 31.3%
  Neutropenia, number: 21
  Thrombocytopenia: 35.5%
  Thrombocytopenia, number: 27
[1]; WHO degree I
  Leukopenia: 23.3%
  Leukopenia, number: 18
  Neutropenia: 17.9%
  Neutropenia, number: 12
  Thrombocytopenia: 42.1%
  Thrombocytopenia, number: 32
[1]; WHO degree II
  Leukopenia: 55.8%
  Leukopenia, number: 43
  Neutropenia: 34.3%
  Neutropenia, number: 23
  Thrombocytopenia: 13.1%
  Thrombocytopenia, number: 10
[1]; WHO degree III
  Leukopenia: 12.9%
  Leukopenia, number: 10
  Neutropenia: 7.4%
  Neutropenia, number: 5
  Thrombocytopenia: 7.8%
  Thrombocytopenia, number: 6
[1]; WHO degree III + IV
  Leukopenia: 12.9%
  Leukopenia, number: 10
  Neutropenia: 16.4%
  Neutropenia, number: 11
  Thrombocytopenia: 9.1%
  Thrombocytopenia, number: 7
[1]; WHO degree IV
  Leukopenia, number: 0
  Neutropenia: 8.9%
  Neutropenia, number: 6
  Thrombocytopenia: 1.3%
  Thrombocytopenia, number: 1
[1]; [2]
  decrease of hematological toxicity on the basis of leukopenia: 1.8 fold
  decrease of hematological toxicity on the basis of neutropenia: 2.6 fold
  decrease of hematological toxicity on the basis of thrombocytopenia: 2.2 fold
M-6 melanoma; 12 hours since withdrawal
  Average amount of melanosomes per a cell: 28.0
  MGII: 9.8
  Number of cells with melanosomes (per 500 cells): 175.0
M-6 melanoma; 24 hours since withdrawal
  Average amount of melanosomes per a cell: 35.0
  MGII: 14.7
  Number of cells with melanosomes (per 500 cells): 210.0
M-6 melanoma; 48 hours since withdrawal
  Average amount of melanosomes per a cell: 42.0
  MGII: 19.0
  Number of cells with melanosomes (per 500 cells): 227.0
M-6 melanoma; following a 15 day course
  average increase of M-6 melanoma tumor cell differentiation degree (MGII): 2.2 fold
  increase in the number of cells comprising melanosomes: 1.3 fold
  increase in the number of melanosomes: 1.3 fold
M-6 melanoma; in 12 hours
  MGII index increase vs control: 1.9 fold
M-6 melanoma; in 24 hours
  MGII index increase vs control: 2.4 fold
M-6 melanoma; in 48 hours
  MGII index increase vs control: 2.3 fold
Friend erythroblastosis; [3]
  Relative tumor volumes Vt/V1 at days after tumor inoculation: 1.0
  Tumor growth inhibition: 61%
Friend erythroblastosis; [4]
  Relative tumor volumes Vt/V1: 1.56
  Tumor growth inhibition: 78* %
Friend erythroblastosis; [5]
  Relative tumor volumes Vt/V1: 3.0
  Tumor growth inhibition: 55%
Friend erythroblastosis; [6]
  Relative tumor volumes Vt/V1: 1.0
  Tumor growth inhibition: 62%
Friend erythroblastosis; [7]
  Relative tumor volumes Vt/V1: 2.3
  Tumor growth inhibition: 58%
Friend erythroblastosis; [8]
  Relative tumor volumes Vt/V1: 3.76
  Tumor growth inhibition: 38%
100 + 15 mg/kg
  Terms of death: no
100 + 15 mg/kg, day 0
  Total leukocyte number: 11.50 ± 2.80 thousand in mm^3
100 + 15 mg/kg, day 3
  Total leukocyte number: 4.04 ± 0.44 thousand in mm^3
100 + 15 mg/kg, day 5
  Total leukocyte number: 10.40 ± 1.59 thousand in mm^3
100 + 15 mg/kg, day 7
  Total leukocyte number: 14.80 ± 1.76 thousand in mm^3
100 + 15 mg/kg, day 21
  Total leukocyte number: 11.80 ± 1.34 thousand in mm^3
200 + 30 mg/kg
  Terms of death: 10
200 + 30 mg/kg, day 3
  Total leukocyte number: 3.10 ± 0.70 thousand in mm^3
200 + 30 mg/kg, day 5
  Total leukocyte number: 12.80 ± 1.37 thousand in mm^3
200 + 30 mg/kg, day 7
  Total leukocyte number: 15.30 ± 1.26 thousand in mm^3
200 + 30 mg/kg, day 21
  Total leukocyte number: 12.30 ± 0.89 thousand in mm^3
Cytostatic doses 200 + 30 mg/kg (Dicarbamine group: 0.5 mg/kg daily 20 days), day 0
  Total leukocyte number: 11.50 ± 2.80 thousand in mm^3
